Experimental data reported in PMC9127186, “Molecular Basis Underlying Hepatobiliary and Renal Excretion of Phenolic Acids of Salvia miltiorrhiza Roots (Danshen)” (Frontiers in Pharmacology, 2022).

How the values were obtained:
human MRP3 = human MRP3 (Homo sapiens, UniProt O15438); assay: Vesicular transport assay, inside-out membrane vesicles expressing human MRP3; conditions: positive substrate 20 μM, 10 min; human MRP3
Procedure: (§1) Inside-out membrane vesicles (5 mg protein/mL), prepared from insect cells expressing human multidrug resistance-associated protein (MRP) 2, MRP3, MRP4, breast cancer resistance protein (BCRP), bile salt export pump (BSEP), and multidrug resistance protein (MDR) one and rat Mrp2, Mrp4, Bcrp, and Bsep, and vesicles (5 mg protein/mL; prepared from the insect cells expressing no ABC transporter; serving as negative control) were obtained from Genomembrane (Kanazawa, Japan).
(§2) The test Danshen compounds at 100 µM final concentration were separately incubated with the membrane vesicles for 10 min. Buffer C (50 mM MOPS-tris, 70 mM KCl, 7.5 mM MgCl2, pH 7.0) was used for preincubation and incubation, while buffer D (40 mM MOPS-tris, 70 mM KCl, pH 7.0) was used for vesicle washing. The transport rate (pmol/mg protein/min) of the test Danshen compound was calculated using Equation (2): Transport=(CV×VV)/T/WV (2) where C V, V V, T, and W V represent concentration of the compound in vesicular lysates supernatant (μM), volume of the lysates (μL), incubation time (10 min), and amount of vesicle protein amount per well (0.05 mg), respectively. Differential transport of the test Danshen compound between ATP-containing vesicles and AMP-containing vesicles was defined as net transport ratio (TransportATP/TransportAMP ratio). […] All the incubation samples were analyzed by liquid chromatography/mass spectrometry.

rat Mrp2 = rat Mrp2 (Rattus norvegicus, UniProt Q63120); assay: Vesicular transport assay, inside-out membrane vesicles expressing rat Mrp2; conditions: positive substrate 20 μM, 10 min; rat Mrp2
Procedure: as §1, §2

human MRP2 = human MRP2 (Homo sapiens, UniProt Q92887); assay: Vesicular transport assay, inside-out membrane vesicles expressing human MRP2; conditions: positive substrate 20 μM, 10 min; human MRP2
Procedure: as §1, §2

human MDR1 = human MDR1 (Homo sapiens, UniProt P08183); assay: Vesicular transport assay, inside-out membrane vesicles expressing human MDR1; conditions: positive substrate 20 μM, 10 min; human MDR1
Procedure: as §1, §2

human OATP1B1 = molecular target: T1, human OATP1B1 (Homo sapiens, UniProt Q9Y6L6); assay: Cellular transport assay, HEK-293 cells expressing human OATP1B1; conditions: positive substrate 20 μM, 10 min; human OATP1B1
T1 sequence (Q9Y6L6 1-691): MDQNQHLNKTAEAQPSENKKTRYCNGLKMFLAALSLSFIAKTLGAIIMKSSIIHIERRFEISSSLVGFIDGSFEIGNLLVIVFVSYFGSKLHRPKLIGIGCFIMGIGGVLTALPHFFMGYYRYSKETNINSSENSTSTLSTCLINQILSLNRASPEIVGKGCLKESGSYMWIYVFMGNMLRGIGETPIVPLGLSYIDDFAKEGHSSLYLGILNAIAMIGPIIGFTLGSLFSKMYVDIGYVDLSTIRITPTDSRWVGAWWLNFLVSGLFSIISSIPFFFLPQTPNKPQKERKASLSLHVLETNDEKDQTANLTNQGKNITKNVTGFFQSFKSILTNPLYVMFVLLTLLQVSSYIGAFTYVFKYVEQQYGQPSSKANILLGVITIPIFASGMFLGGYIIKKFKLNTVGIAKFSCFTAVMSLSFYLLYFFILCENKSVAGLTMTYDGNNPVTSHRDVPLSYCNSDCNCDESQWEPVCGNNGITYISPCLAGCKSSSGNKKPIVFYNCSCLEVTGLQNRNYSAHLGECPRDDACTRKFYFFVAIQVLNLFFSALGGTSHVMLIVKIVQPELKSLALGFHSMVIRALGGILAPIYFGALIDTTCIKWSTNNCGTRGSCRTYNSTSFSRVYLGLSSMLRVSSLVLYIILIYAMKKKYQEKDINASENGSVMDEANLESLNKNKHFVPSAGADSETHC
Procedure: (§3) Briefly, HEK-293 cells were grown, at 37°C and 5% CO2, in Dulbecco’s modified Eagle’s medium, which was fortified with 10% fetal bovine serum, 1% minimal essential medium nonessential amino acids, and 1% antibiotic-antimycotic solution. A day before transfection, cells were seeded onto 24-well poly-D-lysine-coated plates at a density of 2 × 10^5 cells per well. After incubation at 37°C and 5% CO2 for 24 h, the expression plasmid and the empty vector were introduced separately into the HEK293 cells with Lipofectamine 2000 transfection reagent (Invitrogen, Carlsbad, CA, United States), according to the manufacturer’s protocol to yield transporter-expressing cells and mock cells, respectively.
(§4) Transport studies were performed 48 h after the transfection. […] Differential uptake between the transfected cells and mock cells was defined as net transport ratio (TransportTC/TransportMC ratio), where TransportTC and TransportMC are the transport rates of a test Danshen compound into transfected and mock cells, respectively. […] The determination was performed under linear uptake conditions by incubation for 5 min. Table 1 summarizes the final concentrations of the test Danshen compounds for different transporters. All the incubation samples were analyzed by liquid chromatography/mass spectrometry.
(§5) GraFit software (version 5.0; Erithacus Software Ltd, Surrey, United Kingdom) was used to determine the K m and V max values by nonlinear regression analysis of initial transport rates as a function of substrate concentration.

rat Oatp1b2 = molecular target: T2, rat Oatp1b2 (Rattus norvegicus, UniProt Q9QZX8); assay: Cellular transport assay, HEK-293 cells expressing rat Oatp1b2; conditions: positive substrate 20 μM, 10 min; rat Oatp1b2
T2 sequence (Q9QZX8 1-687): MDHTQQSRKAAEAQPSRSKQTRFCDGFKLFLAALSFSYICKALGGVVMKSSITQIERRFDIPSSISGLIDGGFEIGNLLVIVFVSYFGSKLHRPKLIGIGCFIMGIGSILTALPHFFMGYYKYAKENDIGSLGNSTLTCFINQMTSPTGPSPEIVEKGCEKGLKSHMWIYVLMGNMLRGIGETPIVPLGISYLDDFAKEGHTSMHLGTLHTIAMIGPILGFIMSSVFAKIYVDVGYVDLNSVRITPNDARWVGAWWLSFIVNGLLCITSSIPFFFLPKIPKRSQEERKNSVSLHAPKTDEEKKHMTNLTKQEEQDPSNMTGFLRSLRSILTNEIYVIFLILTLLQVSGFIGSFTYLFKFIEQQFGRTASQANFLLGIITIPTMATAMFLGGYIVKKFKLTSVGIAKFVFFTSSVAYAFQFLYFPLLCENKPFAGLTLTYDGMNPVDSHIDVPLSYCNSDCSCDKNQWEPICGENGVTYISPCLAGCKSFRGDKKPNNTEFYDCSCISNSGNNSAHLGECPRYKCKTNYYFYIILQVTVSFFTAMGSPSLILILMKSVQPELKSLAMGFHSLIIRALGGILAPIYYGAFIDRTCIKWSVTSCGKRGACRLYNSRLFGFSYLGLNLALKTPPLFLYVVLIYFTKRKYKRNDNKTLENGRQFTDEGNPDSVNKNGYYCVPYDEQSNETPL
Procedure: as §3, §4, §5

OATP1B3 = molecular target: T3, OATP1B3 (Homo sapiens, UniProt Q9NPD5); assay: Cellular transport assay, HEK-293 cells expressing human OATP1B3; conditions: positive substrate 20 μM, 10 min; human OATP1B3
T3 sequence (Q9NPD5 1-702): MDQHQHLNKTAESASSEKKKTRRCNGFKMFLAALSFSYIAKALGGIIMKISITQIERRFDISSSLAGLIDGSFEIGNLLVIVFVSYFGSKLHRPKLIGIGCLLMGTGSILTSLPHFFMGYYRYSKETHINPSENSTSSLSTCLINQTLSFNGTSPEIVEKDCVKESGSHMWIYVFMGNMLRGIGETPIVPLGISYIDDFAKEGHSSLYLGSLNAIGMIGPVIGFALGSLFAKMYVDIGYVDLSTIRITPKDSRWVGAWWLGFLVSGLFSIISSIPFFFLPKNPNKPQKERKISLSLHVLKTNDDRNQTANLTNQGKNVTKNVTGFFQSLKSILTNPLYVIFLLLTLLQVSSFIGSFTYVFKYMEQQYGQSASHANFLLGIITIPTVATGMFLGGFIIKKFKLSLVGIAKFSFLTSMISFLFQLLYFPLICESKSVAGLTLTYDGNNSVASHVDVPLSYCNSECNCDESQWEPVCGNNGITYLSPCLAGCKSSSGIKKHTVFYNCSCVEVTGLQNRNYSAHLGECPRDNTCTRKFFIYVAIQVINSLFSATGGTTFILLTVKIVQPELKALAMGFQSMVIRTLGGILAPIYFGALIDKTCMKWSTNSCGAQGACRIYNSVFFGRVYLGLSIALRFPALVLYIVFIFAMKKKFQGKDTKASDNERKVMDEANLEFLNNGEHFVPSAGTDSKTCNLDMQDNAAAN
Procedure: as §3, §4, §5

human OAT2 = molecular target: T4, human OAT2 (Homo sapiens, UniProt Q9Y694); assay: Cellular transport assay, HEK-293 cells expressing human OAT2; conditions: positive substrate 20 μM, 10 min; human OAT2
T4 sequence (Q9Y694 1-546 isoform Q9Y694-2): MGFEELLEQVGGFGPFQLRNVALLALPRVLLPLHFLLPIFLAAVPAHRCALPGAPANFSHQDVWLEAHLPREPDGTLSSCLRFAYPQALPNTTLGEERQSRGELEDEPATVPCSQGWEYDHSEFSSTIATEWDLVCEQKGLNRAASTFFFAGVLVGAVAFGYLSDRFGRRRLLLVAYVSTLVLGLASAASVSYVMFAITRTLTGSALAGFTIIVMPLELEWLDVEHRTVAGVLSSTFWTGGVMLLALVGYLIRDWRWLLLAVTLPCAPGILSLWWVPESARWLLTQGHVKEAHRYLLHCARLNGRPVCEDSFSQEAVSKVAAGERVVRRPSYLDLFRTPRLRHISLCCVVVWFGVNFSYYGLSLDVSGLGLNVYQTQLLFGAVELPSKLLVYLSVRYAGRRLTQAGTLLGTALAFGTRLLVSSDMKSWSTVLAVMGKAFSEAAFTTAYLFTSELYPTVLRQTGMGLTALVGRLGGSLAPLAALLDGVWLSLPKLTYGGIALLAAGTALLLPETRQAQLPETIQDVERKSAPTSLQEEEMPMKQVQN
Procedure: as §3, §4, §5

rat Oat2 = molecular target: T5, rat Oat2 (Rattus norvegicus, UniProt Q5RLM2); assay: Cellular transport assay, HEK-293 cells expressing rat Oat2; conditions: positive substrate 20 μM, 10 min; rat Oat2
T5 sequence (Q5RLM2 1-535): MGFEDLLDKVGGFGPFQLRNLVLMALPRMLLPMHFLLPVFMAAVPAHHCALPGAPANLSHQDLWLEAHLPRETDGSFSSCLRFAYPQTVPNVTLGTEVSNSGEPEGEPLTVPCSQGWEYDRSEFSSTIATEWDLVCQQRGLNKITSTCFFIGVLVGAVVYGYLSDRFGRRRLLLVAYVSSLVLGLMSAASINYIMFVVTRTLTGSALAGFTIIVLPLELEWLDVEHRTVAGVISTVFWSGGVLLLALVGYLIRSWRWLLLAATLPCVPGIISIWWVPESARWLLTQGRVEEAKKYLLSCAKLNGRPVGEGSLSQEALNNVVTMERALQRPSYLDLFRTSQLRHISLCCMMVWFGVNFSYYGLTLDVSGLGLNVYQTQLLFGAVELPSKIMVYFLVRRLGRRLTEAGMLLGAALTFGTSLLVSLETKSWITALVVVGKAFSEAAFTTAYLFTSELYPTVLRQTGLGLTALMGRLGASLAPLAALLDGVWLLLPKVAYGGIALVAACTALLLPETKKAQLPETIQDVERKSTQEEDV
Procedure: as §3, §4, §5

[1] = substrate: O=C(/C=C/c1ccc(O)c(O)c1)O[C@H](Cc1ccc(O)c(O)c1)C(=O)O; assay: cells, lysate or membranes named; conditions: other: human renal apical uptake OAT4; 5 min incubation, concentrations in Table 1; 37.0 °C

Sequence of human MDR1 (P08183 whole entry): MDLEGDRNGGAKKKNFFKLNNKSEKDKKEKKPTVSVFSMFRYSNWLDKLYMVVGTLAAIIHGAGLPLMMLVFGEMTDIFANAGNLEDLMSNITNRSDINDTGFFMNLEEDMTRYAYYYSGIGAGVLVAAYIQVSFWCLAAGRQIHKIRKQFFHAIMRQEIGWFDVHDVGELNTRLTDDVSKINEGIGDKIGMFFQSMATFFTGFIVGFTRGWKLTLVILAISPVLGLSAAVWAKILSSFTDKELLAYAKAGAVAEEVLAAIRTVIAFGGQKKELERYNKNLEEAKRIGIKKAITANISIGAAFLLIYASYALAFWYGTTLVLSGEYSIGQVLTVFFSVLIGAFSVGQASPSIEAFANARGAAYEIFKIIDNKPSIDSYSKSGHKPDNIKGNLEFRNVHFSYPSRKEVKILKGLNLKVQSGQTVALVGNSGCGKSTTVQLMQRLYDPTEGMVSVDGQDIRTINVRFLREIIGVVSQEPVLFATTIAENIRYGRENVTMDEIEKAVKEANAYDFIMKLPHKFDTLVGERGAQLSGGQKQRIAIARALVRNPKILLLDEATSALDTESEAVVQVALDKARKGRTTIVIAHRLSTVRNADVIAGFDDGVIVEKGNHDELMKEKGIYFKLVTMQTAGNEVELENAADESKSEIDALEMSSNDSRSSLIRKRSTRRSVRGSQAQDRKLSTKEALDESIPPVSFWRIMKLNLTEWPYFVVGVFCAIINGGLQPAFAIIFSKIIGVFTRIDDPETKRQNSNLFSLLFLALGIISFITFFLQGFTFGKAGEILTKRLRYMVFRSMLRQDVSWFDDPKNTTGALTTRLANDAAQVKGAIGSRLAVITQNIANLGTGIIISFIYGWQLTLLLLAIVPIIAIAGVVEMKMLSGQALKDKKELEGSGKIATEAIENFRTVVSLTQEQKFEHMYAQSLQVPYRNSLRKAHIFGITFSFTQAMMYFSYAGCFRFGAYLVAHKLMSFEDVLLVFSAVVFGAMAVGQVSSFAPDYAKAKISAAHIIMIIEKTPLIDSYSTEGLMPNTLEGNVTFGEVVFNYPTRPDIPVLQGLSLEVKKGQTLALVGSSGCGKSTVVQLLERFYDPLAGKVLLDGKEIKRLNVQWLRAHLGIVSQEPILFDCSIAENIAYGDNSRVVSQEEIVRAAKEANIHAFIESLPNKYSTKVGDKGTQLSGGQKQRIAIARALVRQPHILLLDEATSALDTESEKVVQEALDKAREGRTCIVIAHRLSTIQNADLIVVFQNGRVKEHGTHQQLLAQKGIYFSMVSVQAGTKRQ
Sequence of human MRP2 (Q92887 whole entry): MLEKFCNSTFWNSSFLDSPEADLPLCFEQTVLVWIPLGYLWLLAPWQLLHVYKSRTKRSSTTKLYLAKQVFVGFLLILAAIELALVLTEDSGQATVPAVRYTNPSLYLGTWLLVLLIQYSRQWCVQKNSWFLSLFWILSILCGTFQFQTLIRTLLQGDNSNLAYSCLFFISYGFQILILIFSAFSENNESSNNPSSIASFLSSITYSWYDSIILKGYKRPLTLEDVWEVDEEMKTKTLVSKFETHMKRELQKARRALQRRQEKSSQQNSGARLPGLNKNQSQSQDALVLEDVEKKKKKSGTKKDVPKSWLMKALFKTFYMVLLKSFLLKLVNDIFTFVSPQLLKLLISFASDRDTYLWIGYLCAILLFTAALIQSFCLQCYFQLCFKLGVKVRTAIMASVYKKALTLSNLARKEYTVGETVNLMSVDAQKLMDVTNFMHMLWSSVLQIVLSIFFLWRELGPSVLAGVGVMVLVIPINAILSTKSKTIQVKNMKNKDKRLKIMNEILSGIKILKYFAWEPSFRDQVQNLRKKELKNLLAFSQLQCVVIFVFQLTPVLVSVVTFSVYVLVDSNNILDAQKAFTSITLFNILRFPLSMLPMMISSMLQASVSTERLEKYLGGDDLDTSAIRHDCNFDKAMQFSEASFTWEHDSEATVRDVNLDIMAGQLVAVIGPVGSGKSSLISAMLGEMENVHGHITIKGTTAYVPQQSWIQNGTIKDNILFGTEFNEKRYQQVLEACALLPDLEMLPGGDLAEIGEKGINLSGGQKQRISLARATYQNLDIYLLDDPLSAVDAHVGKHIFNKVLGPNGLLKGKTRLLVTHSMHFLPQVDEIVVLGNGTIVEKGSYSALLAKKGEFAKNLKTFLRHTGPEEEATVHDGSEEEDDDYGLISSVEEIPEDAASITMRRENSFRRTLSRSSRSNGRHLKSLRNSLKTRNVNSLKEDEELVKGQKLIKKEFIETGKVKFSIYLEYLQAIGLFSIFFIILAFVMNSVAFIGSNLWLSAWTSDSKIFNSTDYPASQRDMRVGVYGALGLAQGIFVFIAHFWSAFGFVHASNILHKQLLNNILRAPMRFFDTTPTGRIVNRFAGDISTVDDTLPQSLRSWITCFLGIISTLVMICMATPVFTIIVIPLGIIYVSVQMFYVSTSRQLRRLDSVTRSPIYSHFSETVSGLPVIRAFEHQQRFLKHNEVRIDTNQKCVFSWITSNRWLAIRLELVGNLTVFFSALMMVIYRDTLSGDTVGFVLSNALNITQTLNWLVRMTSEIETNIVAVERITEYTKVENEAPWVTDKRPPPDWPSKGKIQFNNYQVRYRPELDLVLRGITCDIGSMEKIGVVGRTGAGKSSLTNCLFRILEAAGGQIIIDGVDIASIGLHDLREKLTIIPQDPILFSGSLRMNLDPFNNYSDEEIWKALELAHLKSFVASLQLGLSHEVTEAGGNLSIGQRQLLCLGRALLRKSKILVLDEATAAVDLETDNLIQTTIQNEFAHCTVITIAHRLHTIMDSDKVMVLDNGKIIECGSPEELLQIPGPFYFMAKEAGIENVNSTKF
Sequence of human MRP3 (O15438 whole entry): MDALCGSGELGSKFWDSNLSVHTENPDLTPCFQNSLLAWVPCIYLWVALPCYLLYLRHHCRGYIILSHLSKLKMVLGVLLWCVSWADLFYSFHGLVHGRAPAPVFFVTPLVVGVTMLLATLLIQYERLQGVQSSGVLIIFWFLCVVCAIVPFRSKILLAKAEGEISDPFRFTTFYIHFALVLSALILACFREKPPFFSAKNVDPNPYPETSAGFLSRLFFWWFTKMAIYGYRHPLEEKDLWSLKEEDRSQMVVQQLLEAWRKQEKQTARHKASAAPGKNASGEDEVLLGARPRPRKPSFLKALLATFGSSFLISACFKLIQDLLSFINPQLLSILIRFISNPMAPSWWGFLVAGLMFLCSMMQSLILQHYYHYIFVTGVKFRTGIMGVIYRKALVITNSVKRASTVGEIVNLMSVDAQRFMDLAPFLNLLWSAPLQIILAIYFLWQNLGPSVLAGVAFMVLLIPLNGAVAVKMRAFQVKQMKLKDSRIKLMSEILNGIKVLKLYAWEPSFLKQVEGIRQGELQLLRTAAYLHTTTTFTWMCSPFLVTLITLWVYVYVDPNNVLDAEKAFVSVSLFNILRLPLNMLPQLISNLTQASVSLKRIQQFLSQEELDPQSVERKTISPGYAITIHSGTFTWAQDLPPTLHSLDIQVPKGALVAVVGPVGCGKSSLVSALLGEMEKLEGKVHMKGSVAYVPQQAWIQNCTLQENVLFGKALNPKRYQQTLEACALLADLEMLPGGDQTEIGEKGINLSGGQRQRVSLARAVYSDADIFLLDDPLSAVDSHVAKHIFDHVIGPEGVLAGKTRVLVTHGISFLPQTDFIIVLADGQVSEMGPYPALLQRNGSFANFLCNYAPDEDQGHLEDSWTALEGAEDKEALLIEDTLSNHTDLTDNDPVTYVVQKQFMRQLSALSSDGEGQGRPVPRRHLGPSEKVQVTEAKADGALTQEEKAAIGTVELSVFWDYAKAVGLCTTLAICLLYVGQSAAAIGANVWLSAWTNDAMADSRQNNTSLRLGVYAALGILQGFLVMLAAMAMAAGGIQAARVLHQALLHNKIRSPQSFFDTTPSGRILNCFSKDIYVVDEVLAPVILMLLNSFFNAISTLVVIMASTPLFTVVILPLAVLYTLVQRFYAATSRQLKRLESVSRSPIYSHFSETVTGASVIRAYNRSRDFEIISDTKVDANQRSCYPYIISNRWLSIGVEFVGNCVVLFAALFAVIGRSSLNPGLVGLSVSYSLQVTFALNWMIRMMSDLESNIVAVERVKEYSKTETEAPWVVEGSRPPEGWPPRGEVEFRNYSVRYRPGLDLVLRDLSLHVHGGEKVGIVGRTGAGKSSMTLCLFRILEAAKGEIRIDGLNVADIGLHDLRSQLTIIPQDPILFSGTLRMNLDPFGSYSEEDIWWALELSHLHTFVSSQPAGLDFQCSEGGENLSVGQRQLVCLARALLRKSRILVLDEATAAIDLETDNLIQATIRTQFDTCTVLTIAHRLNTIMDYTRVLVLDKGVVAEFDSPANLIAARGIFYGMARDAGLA

`C[C@]12CC[C@@H]3c4ccc(O)cc4CC[C@H]3[C@@H]1CC[C@@H]2O[C@@H]1O[C@H](C(=O)O)[C@@H](O)[C@H](O)[C@H]1O` [E217βG, estradiol-17β-D-glucuronide, reference compound] was tested, and the “TransportATP/TransportAMP ratio, positive substrate” value (“TransportATP/TransportAMP ratio” below) (human MRP3) was 6.79 ± 1.49 (E217βG), the “TransportATP/TransportAMP ratio” value (rat Mrp2) was 3.54 ± 0.32 (E217βG) and the “TransportATP/TransportAMP ratio” value (human MRP2) was 7.23 ± 1.04 (E217βG).

`CC1(C)[C@@H](O[C@H]2O[C@H](C(=O)O)[C@@H](O)[C@H](O)[C@H]2O[C@@H]2O[C@H](C(=O)O)[C@@H](O)[C@H](O)[C@H]2O)CC[C@]2(C)[C@H]3C(=O)C=C4[C@@H]5C[C@@](C)(C(=O)O)CC[C@]5(C)CC[C@@]4(C)[C@]3(C)CC[C@@H]12` [GL, glycyrrhizin, reference compound] was tested, and the “TransportATP/TransportAMP ratio” value (human MDR1) was 5.13 ± 0.87 (GL), the “TransportTC/TransportMC ratio, positive substrate” value (from here on “TransportTC/TransportMC ratio”) (human OATP1B1) was 79.5 ± 1.3 (GL) and the “TransportTC/TransportMC ratio” value (rat Oatp1b2) was 121 ± 2 (GL). For the same molecule, the “TransportTC/TransportMC ratio” value (OATP1B3) was 33.1 ± 0.5 (GL).

With `CCCCC[C@H](O)/C=C/[C@@H]1[C@@H](C/C=C\CCCC(=O)O)[C@@H](O)C[C@H]1O` [PGF2α, prostaglandin F2α, reference compound] the “TransportTC/TransportMC ratio” value (human OAT2) was 70.2 ± 6.6 (PGF2α) and the “TransportTC/TransportMC ratio” value (rat Oat2) was 24.3 ± 3.3 (PGF2α).

B1: human OAT4 (Homo sapiens) (protein)
chain: MAFSKLLEQAGGVGLFQTLQVLTFILPCLMIPSQMLLENFSAAIPGHRCWTHMLDNGSAVSTNMTPKALLTISIPPGPNQGPHQCRRFRQPQWQLLDPNATATSWSEADTEPCVDGWVYDRSVFTSTIVAKWDLVCSSQGLKPLSQSIFMSGILVGSFIWGLLSYRFGRKPMLSWCCLQLAVAGTSTIFAPTFVIYCGLRFVAAFGMAGIFLSSLTLMVEWTTTSRRAVTMTVVGCAFSAGQAALGGLAFALRDWRTLQLAASVPFFAISLISWWLPESARWLIIKGKPDQALQELRKVARINGHKEAKNLTIEVLMSSVKEEVASAKEPRSVLDLFCVPVLRWRSCAMLVVNFSLLISYYGLVFDLQSLGRDIFLLQALFGAVDFLGRATTALLLSFLGRRTIQAGSQAMAGLAILANMLVPQDLQTLRVVFAVLGKGCFGISLTCLTIYKAELFPTPVRMTADGILHTVGRLGAMMGPLILMSRQALPLLPPLLYGVISIASSLVVLFFLPETQGLPLPDTIQDLESQKSTAAQGNRQEAVTVESTSL
With B1 the Vmax [1] was 4.75e-05 µmol/min/mg and the Vmax/Km [1] was 0.15 µL/min/mg.
